In US20230295197A1, “STAT5 and STAT6 Degraders and Uses Thereof” (REGENTS OF THE UNIVERSITY OF MICHICAN, priority 2022, published 2023):
Where two headings read alike, the source gives them in different places.

Molecular target: T1, STAT6 (Homo sapiens, UniProt P42226)
T1 construct: endogenous in cells; host or cells: MOLM-16, KU-812, SKNO1, MB231, L1236
T1 sequence (P42226 1-847): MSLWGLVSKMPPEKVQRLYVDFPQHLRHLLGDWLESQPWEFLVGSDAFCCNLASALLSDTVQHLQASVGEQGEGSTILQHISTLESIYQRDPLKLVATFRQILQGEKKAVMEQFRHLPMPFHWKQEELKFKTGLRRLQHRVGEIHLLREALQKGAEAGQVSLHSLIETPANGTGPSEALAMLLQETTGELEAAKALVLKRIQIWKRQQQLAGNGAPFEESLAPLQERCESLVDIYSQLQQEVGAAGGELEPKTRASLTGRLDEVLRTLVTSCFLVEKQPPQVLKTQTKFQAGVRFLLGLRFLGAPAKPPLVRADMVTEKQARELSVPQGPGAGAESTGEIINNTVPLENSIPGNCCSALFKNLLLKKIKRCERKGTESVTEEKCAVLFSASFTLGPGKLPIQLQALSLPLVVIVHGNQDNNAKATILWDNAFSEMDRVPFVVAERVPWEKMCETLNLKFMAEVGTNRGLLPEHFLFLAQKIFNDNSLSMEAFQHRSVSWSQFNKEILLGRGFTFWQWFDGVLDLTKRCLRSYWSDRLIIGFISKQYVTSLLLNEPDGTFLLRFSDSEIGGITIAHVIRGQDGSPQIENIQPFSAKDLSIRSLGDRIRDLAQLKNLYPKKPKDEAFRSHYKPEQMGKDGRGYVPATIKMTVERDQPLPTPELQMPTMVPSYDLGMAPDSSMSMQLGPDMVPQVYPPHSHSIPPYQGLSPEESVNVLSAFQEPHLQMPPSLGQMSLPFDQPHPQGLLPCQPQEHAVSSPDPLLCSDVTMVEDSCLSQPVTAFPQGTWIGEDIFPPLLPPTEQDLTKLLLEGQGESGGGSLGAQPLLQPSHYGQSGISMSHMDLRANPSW
Experiment: Immunoblotting (Western blot) analysis of STAT6 degradation efficiency of degraders in treated cells
Format: cell-based
How it was run: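 Treatment of cells with degraders at stated concentrations and exposure times comes first. Lysates are then equalised for total protein by BCA, and the proteins are separated, transferred and immunostained for STAT6 or STAT5 alongside GAPDH. Signal is quantified from infrared fluorescence.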

[1] = MOLM-16 cells, class symbols, read-out: DC50 S6 MOLM-16

CC(C)(C)[C@H](NC(=O)c1cc2cc(C(F)(F)P(=O)(O)O)ccc2s1)C(=O)N1C[C@@H](OCCCCCCC#Cc2cccc3c2CN(C2CCC(=O)NC2=O)C3=O)C[C@H]1C(=O)N1CCS(=O)(=O)C(c2ccccc2)C1 (stereo partly drawn) [Compound 607, ((2-(((2S)-1-((2S,4S)-2-(1,1-dioxido-2-phenylthiomorpholine-4-carbonyl)-4-((8-(2-(2,6-dioxopiperidin-3-yl)-1-oxoisoindolin-4-yl)oct-7-yn-1-yl)oxy)pyrrolidin-1-yl)-3,3-dimethyl-1-oxobutan-2-yl)carbamoyl)benzo[b]thiophen-5-yl)difluoromethyl)phosphonic acid]
DC50 [1]: < 0.1 µM

CC(C)(C)[C@H](NC(=O)c1cc2cc(C(F)(F)P(=O)(O)O)ccc2s1)C(=O)N1CCN(C(=O)CC(=O)NCCCC#Cc2ccc3c(c2)C(=O)N(C2CCC(=O)NC2=O)C3=O)C[C@H]1C(=O)N1CCC[C@H](c2ccccc2)C1 (stereo partly drawn) [Compound 526, ((2-(((2S)-1-((2S)-4-(3-((5-(2-(2,6-dioxopiperidin-3-yl)-1,3-dioxoisoindolin-5-yl)pent-4-yn-1-yl)amino)-3-oxopropanoyl)-2-((R)-3-phenylpiperidine-1-carbonyl)piperazin-1-yl)-3,3-dimethyl-1-oxobutan-2-yl)carbamoyl)benzo[b]thiophen-5-yl)difluoromethyl)phosphonic acid]
DC50 [1]: > 10 µM

Cc1ncsc1-c1ccc([C@H](C)NC(=O)[C@@H]2C[C@@H](O)CN2C(=O)[C@@H](NC(=O)CCCCCCCNC(=O)CO[C@H]2C[C@@H](C(=O)N3CCO[C@H](c4ccccc4)C3)N(C(=O)[C@@H](NC(=O)c3cc4cc(C(F)(F)P(=O)(O)O)ccc4s3)C(C)(C)C)C2)C(C)(C)C)cc1 [Compound 431, (difluoro(2-(((S)-1-((2S,4S)-4-(2-((8-(((S)-1-((2S,4R)-4-hydroxy-2-(((S)-1-(4-(4-methylthiazol-5-yl)phenyl)ethyl)carbamoyl)pyrrolidin-1-yl)-3,3-dimethyl-1-oxobutan-2-yl)amino)-8-oxooctyl)amino)-2-oxoethoxy)-2-((R)-2-phenylmorpholine-4-carbonyl)pyrrolidin-1-yl)-3,3-dimethyl-1-oxobutan-2-yl)carbamoyl)benzo[b]thiophen-5-yl)methyl)phosphonic acid]
DC50 (L1236 cells, read-out: DC50 S6 L1236): > 10 µM
DC50 [1]: > 10 µM

CC(C)(C)[C@H](NC(=O)c1cc2cc(C(F)(F)P(=O)(O)O)ccc2s1)C(=O)N1Cc2cc(OCC(=O)NCCCCCC#Cc3ccc4c(c3)C(=O)N(C3CCC(=O)NC3=O)C4=O)ccc2C[C@H]1C(=O)N1CCO[C@H](c2ccccc2)C1 (stereo partly drawn) [Compound 544, ((2-(((2S)-1-((3S)-7-(2-((7-(2-(2,6-dioxopiperidin-3-yl)-1,3-dioxoisoindolin-5-yl)hept-6-yn-1-yl)amino)-2-oxoethoxy)-3-((R)-2-phenylmorpholine-4-carbonyl)-3,4-dihydroisoquinolin-2(1H)-yl)-3,3-dimethyl-1-oxobutan-2-yl)carbamoyl)benzo[b]thiophen-5-yl)difluoromethyl)phosphonic acid]
DC50 [1]: > 10 µM

CC(C)(C)[C@H](NC(=O)c1cc2cc(C(F)(F)P(=O)(O)O)ccc2s1)C(=O)N1C[C@@H](OCCCCCCC#Cc2cccc3c2CN(C2CCC(=O)NC2=O)C3=O)C[C@H]1C(=O)N1CCOC(c2cccc3ccccc23)C1 (stereo partly shown) [Compound 612]
DC50 (MOLM-16 cells, numeric bound, read-out: DC50 S6 MOLM-16): > 0.3 µM

CC(C)(C)[C@H](NC(=O)c1cc2cc(C(F)(F)P(=O)(O)O)ccc2s1)C(=O)N1CCN(C(=O)CC(=O)NCCCCCCCCCC#Cc2cccc3c2C(=O)N(C2CCC(=O)NC2=O)C3=O)C[C@H]1C(=O)N1CCO[C@H](c2ccccc2)C1 (stereo partly drawn) [Compound 519, ((2-(((2S)-1-((2S)-4-(3-((11-(2-(2,6-dioxopiperidin-3-yl)-1,3-dioxoisoindolin-4-yl)undec-10-yn-1-yl)amino)-3-oxopropanoyl)-2-((R)-2-phenylmorpholine-4-carbonyl)piperazin-1-yl)-3,3-dimethyl-1-oxobutan-2-yl)carbamoyl)benzo[b]thiophen-5-yl)difluoromethyl)phosphonic acid]
DC50 [1]: > 10 µM
